Results on 28 molecules are retold here after patent US20250367209A1 (SOUTHERN RESEARCH INSTITUTE, priority 2022, published 2025).

The test concerns the target Tau-FynSH3 interaction (Homo sapiens (Human), UniProt P10636). The test can be described thus: Tau-FynSH3 AlphaScreen. The test is classed as binding. To be noted: for lower / reduced AlphaScreen activity: compared to compound no. 20. The text has this:
Human Fyn-SH3 domain with GST-tag at the N-terminus and a Strep-tag II ([…]) at the C-terminus (GST-Fyn-SH3-Strep) was cloned into pPR-IBA1 vector (IBA Lifesciences) (Cochran, et al. (2014) J. Biomol. Screen. 19, 1338-1349). Codon-optimized human 4R2N Tau for E. coli expression with a Strep-tag II at the C-terminus (His-Tau-Strep) was cloned into pET-28a(+) vector (Novagen). The constructs were transformed into E. coli BL-21(DE3) competent cells (Novagen). For GST-Fyn-SH3-Strep purification, a single colony was inoculated in Luria-Bertani (LB) broth at 37° C. overnight. 10 mL cell culture was added into 500 mL LB medium and cultured at 37° C. 0.5 mM Isopropyl β-D-1-thiogalactopyranoside (IPTG) was added into the culture when OD600 reached 0.7. Cells were further cultured at 25° C. for 4 hours and harvested. Cell pellet was resuspended in lysis buffer (20 mM Tris pH 7.9, 300 mM NaCl, 1 mM TCEP) with 1 tablet of EDTA-free protease inhibitors (ThermoFisher) and 1 mg/ml lysozyme. Cells were disrupted by sonication and debris was removed by centrifugation at 9500 rpm for 1 hour. Supernatant was loaded onto a glutathione-sepharose column (Cytiva). The column was washed in lysis buffer and protein eluted in lysis buffer containing 25 mM reduced glutathione. For His-Tau-Strep protein purification, cells were inoculated in LB broth medium and cultured at 37° C. overnight. A 10 mL overnight culture was added to 500 mL of auto-induction medium (Studier, F. W. (2005) Protein Expr Purif 41, 207-34) and cells were cultured at 37° C. for about 5 hours. The temperature was lowered to 18° C., and cells were cultured overnight. Cells were harvested and resuspended in lysis buffer with 20 mM imidazole, protease inhibitors, and lysozyme. Cells were disrupted by sonication and cell pellets were spun down at 9500 rpm for 1 hour. Supernatant was loaded onto Ni-NTA column (Cytiva) and the column was washed in lysis buffer with 20 mM imidazole. His-Tau-Strep protein was eluted in lysis buffer containing 400 mM imidazole. Both eluted GST-Fyn-SH3-Strep and His-Tau-Strep protein solutions were passed through G-25 desalting column (Cytiva) with lysis buffer and loaded onto high capacity Strep-Tactin column (IBA Lifesciences). The columns were washed in Buffer W (IBA Life sciences) and proteins were eluted in Buffer E (IBA life sciences). The eluted proteins were passed through G-25 desalting column again. Both GST-Fyn-Strep and His-Tau-Strep proteins were concentrated and diluted 1:1 in ethylene glycol as a cryoprotectant for storage at −80° C.
AlphaScreen was conducted with 10 µg/mL of glutathione donor beads (PerkinElmer, Waltham, MA) and nickel chelate acceptor beads (PerkinElmer) in 10 mM Bis-Tris (pH 7.0), 1 mM TCEP, 0.02% casein, and 0.1% Tween-20. Compounds were plated first followed by addition of one the proteins at 600 nM and incubation for 30 min. The second protein was added and incubated for 30 mn, then the beads were added simultaneously and the final mixture was incubated for 2 hours. Experiments were conducted in 384-well plates (6007290; PerkinElmer) and results were read on a PHERAstar plate reader (BMG Labtech, Cary, NC).
˜50,000 compounds from the Enamine and Southern Research libraries were screened to identify Tau-FynSH3 interaction inhibitors using an AlphaScreen assay (Cochran, et al. (2014) J. Biomol. Screen. 19, 1338-1349). Compounds that were >3 standard deviations above mean inhibition were selected, yielding 1,852 hits (FIG. 1A). […]. These 39 compounds were tested in a live-cell BRET assay to measure Tau-Fyn interaction in cells. […]. Screen. 19, 1338-1349).
On the technique in general: In Alpha technology, singlet oxygen from a donor bead excites a nearby acceptor bead.

[1] abbreviates: Table 2, Tau-FynSH3 inhibitory activity in the AlphaScreen, read-out: IC50.
The mark [2] stands for this setting: Table 3, read-out: Alpha screen IC50.

Like-named read-outs stand apart in the source and are kept apart here.

Tau-FynSH3 interaction, sequence (P10636 other isoform, or with tags, fused parts or gaps): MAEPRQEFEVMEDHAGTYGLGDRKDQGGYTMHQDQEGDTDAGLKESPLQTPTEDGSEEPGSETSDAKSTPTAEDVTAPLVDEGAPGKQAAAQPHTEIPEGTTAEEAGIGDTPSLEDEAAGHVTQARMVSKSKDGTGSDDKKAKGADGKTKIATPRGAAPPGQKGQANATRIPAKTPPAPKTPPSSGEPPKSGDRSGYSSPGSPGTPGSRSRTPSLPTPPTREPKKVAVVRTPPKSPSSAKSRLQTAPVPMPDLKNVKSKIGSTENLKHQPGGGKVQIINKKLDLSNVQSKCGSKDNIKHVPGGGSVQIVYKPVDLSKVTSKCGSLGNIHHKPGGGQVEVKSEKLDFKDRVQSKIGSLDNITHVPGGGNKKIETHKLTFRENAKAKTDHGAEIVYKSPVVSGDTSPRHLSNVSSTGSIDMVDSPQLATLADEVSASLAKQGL

Regarding `O=C(CCN1C(=O)CCc2ccccc21)Nc1nnc(-c2ccccn2)[nH]1` [compound no. 3, 3-(2-Oxo-3,4-DIHYDROQUINOLIN-1(2H)-YL)-N-(5-(PYRIDIN-2-YL)-4H-1,2,4-TRIAZOL-3-YL)PROPANAMIDE], the IC50 – broadly, the concentration that gives 50% inhibition – under setting [1] was greater than 100000 nM.

On to `O=C(CCN1C(=O)CSc2ccccc21)Nc1ccccc1C(F)(F)F` [compound 36, 3-(3-OXO-2,3-DIHYDRO-4H-BENZO[B][1,4]THIAZIN-4-YL)-N-(2-(TRIFLUOROMETHYL)PHENYL) PROPANAMIDE], for which the “Alpha screen IC50 (μM)” value (Table 3) was “Inactive”.

Regarding `O=C(CCN1C(=O)CSc2cc(C(F)(F)F)ccc21)Nc1nnc(-c2ccccn2)[nH]1` [compound 11, 3-(3-Oxo-7-(TRIFLUOROMETHYL)-2H-BENZO[B][1,4]THIAZIN-4(3H)-YL)-N-(5-(PYRIDIN-2-YL)-4H-1,2,4-TRIAZOL-3-YL)PROPANAMIDE], the IC50 under setting [2] is 3450 nM.

`O=C(CN1C(=O)CSc2ccccc21)Nc1nnc(-c2ccncc2)[nH]1` [compound 25, 2-(3-Oxo-2,3-DIHYDRO-4H-BENZO[B][1,4]THIAZIN-4-YL)-N-(5-(PYRIDIN-4-YL)-4H-1,2,4-TRIAZOL-3-YL)ACETAMIDE]: the “Alpha screen IC50 (μM)” value (Table 3) is given as “Inactive”.

Take `Cc1ccc2c(c1)OCC(=O)N2CC(=O)Nc1nnc(-c2ccccn2)[nH]1` [compound 53, 2-(7-METHYL-3-OXO-2,3-DIHYDRO-4H-BENZO[B][1,4]OXAZIN-4-YL)-N-(5-(PYRIDIN-2-YL)-4H-1,2,4-TRIAZOL-3-YL)ACETAMIDE]: the 50% inhibitory concentration (IC50) under setting [2] was 1600 nM.

Regarding `O=C(CN1C(=O)COc2cc(F)ccc21)Nc1nnc(-c2ccccn2)[nH]1` [compound 46, 2-(7-FLUORO-3-OXO-2,3-DIHYDRO-4H-BENZO[B][1,4]OXAZIN-4-YL)-N-(5-(PYRIDIN-2-YL)-4H-1,2,4-TRIAZOL-3-YL)ACETAMIDE], the half-inhibitory concentration (IC50) under setting [2] was found to be 2960 nM.

Take `O=C(CN1CCOCC1)Nc1nnc(-c2ccccn2)[nH]1` [compound 66]: the “lower / reduced AlphaScreen activity” value is 8-10 fold.

Consider `COc1ccc2c(c1)N(CC(=O)Nc1nnc(-c3ccccn3)[nH]1)C(=O)CC2` [compound 50, 2-(7-METHOXY-2-OXO-3,4-DIHYDROQUINOLIN-1(2H)-YL)-N-(5-(PYRIDIN-2-YL)-4H-1,2,4-TRIAZOL-3-YL)ACETAMIDE], for which the IC50 under setting [2] came to 1600 nM.

`O=C(CN1C(=O)CCc2cc(F)ccc21)Nc1nnc(-c2ccccn2)[nH]1` [compound 51, 2-(6-FLUORO-2-OXO-3,4-DIHYDROQUINOLIN-1(2H)-YL)-N-(5-(PYRIDIN-2-YL)-4H-1,2,4-TRIAZOL-3-YL)ACETAMIDE]: the IC50 under setting [2] turned out to be 1600 nM.

As to `COc1ccc2c(c1)N(CC(=O)Nc1nnc(-c3ccccn3)[nH]1)C(=O)CO2` [compound 49, 2-(6-METHOXY-3-OXO-2,3-DIHYDRO-4H-BENZO[B][1,4]OXAZIN-4-YL)-N-(5-(PYRIDIN-2-YL)-4H-1,2,4-TRIAZOL-3-YL)ACETAMIDE], under setting [2], the IC50 stood at 1600 nM.

`Cc1ccc2c(c1)CCC(=O)N2CC(=O)Nc1nnc(-c2ccccn2)[nH]1` [compound 54, 2-(6-METHYL-2-OXO-3,4-DIHYDROQUINOLIN-1(2H)-YL)-N-(5-(PYRIDIN-2-YL)-4H-1,2,4-TRIAZOL-3-YL)ACETAMIDE]: the IC50 under setting [2] was 1400 nM.

Consider `O=C(CN1C(=O)CSc2cc(C(F)(F)F)ccc21)Nc1nnc(-c2ccccn2)[nH]1` [compound 17, 2-(3-OXO-7-(TRIFLUOROMETHYL)-2H-BENZO[B][1,4]THIAZIN-4(3H)-YL)-N-(5-(PYRIDIN-2-YL)-4H-1,2,4-TRIAZOL-3-YL)ACETAMIDE], for which, under setting [2], the half-inhibitory concentration (IC50) turned out to be 5420 nM.

Turning to `O=C(CN1CCSc2ccccc21)Nc1ncc(-c2ccccn2)o1` [compound 68], the “AlphaScreen activity (in words)” value is recorded as “lost activity”. For the same molecule, the IC50 under setting [1] was greater than 100000 nM.

For the molecule `O=C1CCc2ccccc2N1Cc1nnc(-c2ccccn2)[nH]1` [compound 29, 1-((5-(PYRIDIN-2-YL)-4H-1,2,4-TRIAZOL-3-YL)METHYL)-3,4-DIHYDROQUINOLIN-2(1H)-ONE], the “Alpha screen IC50 (μM)” value (Table 3) is recorded as “Inactive”.

Take `O=C(CN1C(=O)CSc2ccccc21)Nc1cccc(C(=O)N2CCOCC2)c1` [compound 44, N-(3-(MORPHOLINE-4-CARBONYL)PHENYL)-2-(3-OXO-2,3-DIHYDRO-4H-BENZO[B][1,4]THIAZIN-4-YL)ACETAMIDE]: the “Alpha screen IC50 (μM)” value (Table 3) is recorded as “Inactive”.

Take `O=C(CN1C(=O)CCc2ccccc21)Nc1nnc(-c2ccccn2)[nH]1` [compound no. 2, 2-(2-OXO-3,4-DIHYDROQUINOLIN-1(2H)-YL)-N-(5-(PYRIDIN-2-YL)-4H-1,2,4-TRIAZOL-3-YL)ACETAMIDE]: the concentration for half-maximal inhibition (IC50) under setting [1] worked out at 2720 nM.

Regarding `O=c1sc2ccccc2n1Cc1nnc(-c2ccccn2)[nH]1` [compound 30, 3-((5-(PYRIDIN-2-YL)-4H-1,2,4-TRIAZOL-3-YL)METHYL)BENZO[D]THIAZOL-2(3H)-ONE], the half-inhibitory concentration (IC50) under setting [2] worked out at 10600 nM.

Regarding `O=C(CCN1C(=O)COc2ccccc21)Nc1nnc(-c2ccccn2)[nH]1` [compound 43, 3-(3-Oxo-2,3-DIHYDRO-4H-BENZO[B][1,4]OXAZIN-4-YL)-N-(5-(PYRIDIN-2-YL)-4H-1,2,4-TRIAZOL-3-YL)PROPANAMIDE], under setting [1], the 50% inhibitory concentration (IC50) is greater than 100000 nM. For the same molecule, the “Alpha screen IC50 (μM)” value (Table 3) was “Inactive”.

`O=C(CN1C(=O)COc2cc(Cl)ccc21)Nc1nnc(-c2ccccn2)[nH]1` [compound 52, 2-(7-CHLORO-3-OXO-2,3-DIHYDRO-4H-BENZO[B][1,4]OXAZIN-4-YL)-N-(5-(PYRIDIN-2-YL)-4H-1,2,4-TRIAZOL-3-YL)ACETAMIDE]: under setting [2], the IC50 was 1600 nM.

As for `O=C1COc2ccccc2N1Cc1nnc(-c2ccccn2)[nH]1` [compound 28, 4-((5-(PYRIDIN-2-YL)-4H-1,2,4-TRIAZOL-3-YL)METHYL)-2H-BENZO[B][1,4]OXAZIN-3(4H)-ONE], the “Alpha screen IC50 (μM)” value (Table 3) is reported as “Inactive”.

With `O=C(CCN1C(=O)CSc2ccccc21)Nc1ccc(-c2cncnc2)cc1` [compound 42, 3-(3-OXO-2,3-DIHYDRO-4H-BENZO[B][1,4]THIAZIN-4-YL)-N-(4-(PYRIMIDIN-5-YL)PHENYL) PROPANAMIDE], the “Alpha screen IC50 (μM)” value (Table 3) is recorded as “Inactive”.

With `O=C(CCN1C(=O)CSc2ccccc21)Nc1ccc(-c2ccccn2)cc1` [compound 38, 3-(3-Oxo-2,3-DIHYDRO-4H-BENZO[B][1,4]THIAZIN-4-YL)-N-(4-(PYRIDIN-2-YL)PHENYL)PROPANAMIDE], the “Alpha screen IC50 (μM)” value (Table 3) is “Inactive”.

Take `O=C(CCN1C(=O)CSc2ccccc21)Nc1nnn[nH]1` [compound 40, 3-(3-OXO-2,3-DIHYDRO-4H-BENZO[B][1,4]THIAZIN-4-YL)-N-(1H-TETRAZOL-5-YL)PROPANAMIDE]: the “Alpha screen IC50 (μM)” value (Table 3) is “Inactive”.

For the molecule `O=C(CCN1C(=O)CSc2ccccc21)Nc1ncc(-c2ccccn2)[nH]1` [compound no. 5, 3-(3-Oxo-2H-BENZO[B][1,4]THIAZIN-4(3H)-YL)-N-(5-(PYRIDIN-2-YL)-1H-IMIDAZOL-2-YL)PROPANAMIDE], the half-inhibitory concentration (IC50) under setting [2] is 3240 nM.

In the case of `O=C(CN1C(=O)CCc2cc(Cl)ccc21)Nc1nnc(-c2ccccn2)[nH]1` [compound 48, 2-(6-CHLORO-2-OXO-3,4-DIHYDROQUINOLIN-1(2H)-YL)-N-(5-(PYRIDIN-2-YL)-4H-1,2,4-TRIAZOL-3-YL)ACETAMIDE], the IC50 under setting [2] is 1200 nM.

On to `O=C(CCN1C(=O)CSc2ccccc21)Nc1ccc(-c2ncc[nH]2)cc1` [compound 41, N-(4-(1H-IMIDAZOL-2-YL)PHENYL)-3-(3-Oxo-2,3-DIHYDRO-4H-BENZO[B][1,4]THIAZIN-4-YL)PROPANAMIDE], for which, under “Table 3”, the “Alpha screen IC50 (μM)” value was “Inactive”.

For the molecule `O=C(CCN1C(=O)CSc2ccc(Cl)cc21)Nc1nnc(-c2ccccn2)[nH]1` [compound 10, 3-(6-CHLORO-3-OXO-2H-BENZO[B][1,4]THIAZIN-4(3H)-YL)-N-(5-(PYRIDIN-2-YL)-4H-1,2,4-TRIAZOL-3-YL)PROPANAMIDE], under setting [2], the IC50 was 6780 nM.

For the molecule `O=C(CN1CCCCC1)Nc1nnc(-c2ccccn2)[nH]1` [compound 65], the “lower / reduced AlphaScreen activity” value is reported as 8-10 fold.
